Assays:
[1] = biological target: maltase-glucoamylase (Sus scrofa); assay: Inhibitory activity against porcine maltase
[2] = biological target: sucrase-isomaltase (Sus scrofa); assay: Alpha-D-glucosidase inhibitory activity and enzyme inhibition in vitro against porcine sucrase

| SMILES | IC50 [1] [nM] | IC50 [2] [nM] |
| --- | --- | --- |
| CO[C@H]1O[C@H](CO)[C@H](N[C@H]2C[C@](O)(CO)[C@@H](O)[C@H](O)[C@H]2O)[C@H](O)[C@H]1O | 100 | 230 |
| CO[C@H]1O[C@H](CO)[C@@H](N[C@H]2C[C@](O)(CO)[C@@H](O)[C@H](O)[C@H]2O)[C@H](O)[C@H]1O | 72 | 80 |
| OC[C@@]1(O)C[C@H](NC[C@@H](O)c2ccccc2)[C@H](O)[C@H](O)[C@H]1O [1-Hydroxymethyl-5-(2-hydroxy-2-phenyl-ethylamino)-cyclohexane-1,2,3,4-tetraol] |  | 190 |
| OC[C@@]1(O)C[C@H](NC[C@H](O)c2ccccc2)[C@H](O)[C@H](O)[C@H]1O [1-Hydroxymethyl-5-(2-hydroxy-2-phenyl-ethylamino)-cyclohexane-1,2,3,4-tetraol] | 5.8 |  |
| OC[C@@]1(O)C[C@H](NCCc2ccccc2)[C@H](O)[C@@H](O)[C@@H]1O [1-Hydroxymethyl-5-phenethylamino-cyclohexane-1,2,3,4-tetraol] | 100 | 2.3 |
| CC(C)(C)c1cc(CN[C@H]2C[C@](O)(CO)[C@@H](O)[C@H](O)[C@H]2O)cc(C(C)(C)C)c1O [5-(3,5-Di-tert-butyl-4-hydroxy-benzylamino)-1-hydroxymethyl-cyclohexane-1,2,3,4-tetraol] | 43 | 6.8 |
| CC(C)=CCC/C(C)=C/CN[C@H]1C[C@](O)(CO)[C@@H](O)[C@H](O)[C@H]1O [5-(3,7-Dimethyl-octa-2,6-dienylamino)-1-hydroxymethyl-cyclohexane-1,2,3,4-tetraol] | 520 | 11 |
| OC[C@@]1(O)C[C@H](NCc2ccc(Br)cc2)[C@H](O)[C@@H](O)[C@@H]1O [5-(4-Bromo-benzylamino)-1-hydroxymethyl-cyclohexane-1,2,3,4-tetraol] | 230 | 15 |
| OC[C@@]1(O)C[C@H](NCC2CCCCC2)[C@H](O)[C@@H](O)[C@@H]1O [5-(Cyclohexylmethyl-amino)-1-hydroxymethyl-cyclohexane-1,2,3,4-tetraol] | 240 | 9.3 |
| OC[C@@]1(O)C[C@H](NC2CCCCC2)[C@H](O)[C@@H](O)[C@@H]1O [5-Cyclohexylamino-1-hydroxymethyl-cyclohexane-1,2,3,4-tetraol] | 410 | 15 |
| OCC1=C[C@H](NC(CO)CO)[C@H](O)[C@@H](O)[C@@H]1O [6-(2-Hydroxy-1-hydroxymethyl-ethylamino)-4-hydroxymethyl-cyclohex-4-ene-1,2,3-triol] | 5900 | 180 |
| N[C@H]1C[C@](O)(CO)[C@@H](O)[C@H](O)[C@H]1O [Valiolamine] | 2200 | 49 |
